Data from PMC5732813, “Novel piplartine-containing ruthenium complexes: synthesis, cell growth inhibition, apoptosis induction and ROS production on HCT116 cells” (Oncotarget, 2017).
Where “and” joins values, the source holds several entries; their conditions need not be identical. Identical values can stand only once.

Columns and labels:
Format in all cases: cell-based
[1] = tested on: WT SV40 MEF (wild-type immortalized mouse embryonic fibroblast); experiment: Cytotoxic activity, alamar blue assay, WT SV40 MEF; settings: WT SV40 MEF, 72 h incubation, alamar blue; read-out: IC50
Description: (§1) HCT116 (human colon carcinoma), HepG2 (human hepatocellular carcinoma), HSC-3 (human oral squamous cell carcinoma), SCC-4 (human oral squamous cell carcinoma), SCC-9 (human oral squamous cell carcinoma), HL-60 (human promyelocytic leukemia), K-562 (human chronic myelogenous leukemia), B16-F10 (murine melanoma), MRC-5 (human lung fibroblast), WT SV40 MEF (wild-type immortalized mouse embryonic fibroblast) and BAD KO SV40 MEF (BAD gene knockout immortalized mouse embryonic fibroblast) cell lines were obtained from the American Type Culture Collection (ATCC, Manassas, VA, USA) and cultured in RPMI-1640 medium (Gibco-BRL, Gaithersburg, MD, USA) with 10% fetal bovine serum (Life, Carlsbad, CA, USA), 2 mM L-glutamine (Vetec Química Fina, Duque de Caxias, RJ, Brazil) and 50 μg/mL gentamycin (Life, Carlsbad, CA, USA). Adherent cells were collected by treatment with 0.25% trypsin EDTA solution (Gibco-BRL, Gaithersburg, MD, USA). All cell lines were cultured in flasks at 37°C in 5% CO2 and sub-cultured every 3-4 days to maintain exponential growth.
(§2) Cell viability was quantified using the alamar blue assay, according to Ahmed et al.. Cells were inserted in 96-well plates for all experiments (7 x 10^4 cells/mL for adherent cells or 3 x 10^5 cells/mL for suspended cells in 100 μL of medium). […] Negative controls received the vehicle that was used for diluting the compounds tested.

[2] = tested on: SCC-4 (human oral squamous cell carcinoma); experiment: Cytotoxic activity, alamar blue assay, SCC-4; settings: SCC4, IC50 72h
Description: as §1, §2

[3] = tested on: HepG2 (human hepatocellular carcinoma); experiment: Cytotoxic activity, alamar blue assay, HepG2; settings: HepG2, IC50 72h
Description: as §1, §2

[4] = tested on: HSC-3 (human oral squamous cell carcinoma); experiment: Cytotoxic activity, alamar blue assay, HSC-3; settings: HSC3, IC50 72h
Description: as §1, §2

HCT116 cells = experiment: Gene expression analysis by qPCR array (TaqMan Array Human Molecular Mechanisms of Cancer); settings: HCT116, 12 h; DOX 1 μM, PL 10 μM, 1 2.5 μM, 2 5 μM; negative control RQ = 1.0
Description: HCT116 cells were plated in bottles tissue culture (7x10^4 cells/mL). After 12h of incubation with the complexes, total RNA was isolated from the cells using the RNeasy Plus mini kit (Qiagen, Hilden, Germany) according to the manufacturer’s instructions. The RNA was evaluated by fluorimetry (QuBit™, Life Technologies, Camarillo, CA, EUA). RNA reverse transcription was performed using Superscript VILO™ (Invitrogen Corporation, Waltham, MA, USA). A 96-well plate TaqMan® Array Human Molecular Mechanisms of Cancer (ID 4418806, Applied Biosystems™, Foster City, CA, EUA) was used for the gene expression study by qPCR. The reactions were conducted in the ABI ViiA7 (Applied Biosystems™, Foster City, CA, EUA). The cycle conditions comprised 2 min at 50 °C, 20 s at 95 °C, then 40 cycles of 3 s at 95 °C and 30 s at 60 °C. […] The GAPDH, 18S and HPRT1 genes were used for normalization. All experiments were performed in DNase/RNase free conditions.

Substance: [Ru(piplartine)(dppb)(bipy)](PF6)2 [Complex 2]
- IC50 [1]: 6 µM
- more potent than metal-free piplartine [2]: 3 fold
- more potent than metal-free piplartine [3]: 3 fold
- more potent than metal-free piplartine [4]: 6 fold
- RQ ABL1 (HCT116 cells): 0.863
- RQ AKT1 (HCT116 cells): 0.642
- RQ AKT2 (HCT116 cells): 0.592
- RQ APC (HCT116 cells): 0.576
- RQ BAX (HCT116 cells): 0.739
- RQ BCAR1 (HCT116 cells): 0.596
- RQ BCL2 (HCT116 cells): 0.8 and 0.748
- RQ BCL2L1 (HCT116 cells): 0.739
- RQ BCL2L11 (HCT116 cells): 0.904
- RQ BID (HCT116 cells): 0.671
- RQ BRAF (HCT116 cells): 0.781
- RQ CASP8 (HCT116 cells): 0.930
- RQ CASP9 (HCT116 cells): 0.828
- RQ CCND1 (HCT116 cells): 0.5 and 0.461
- RQ CCND3 (HCT116 cells): 0.723
- RQ CCNE1 (HCT116 cells): 0.893
- RQ CDC42 (HCT116 cells): 1.411
- RQ CDH1 (HCT116 cells): 1.1 and 1.098
- RQ CDK2 (HCT116 cells): 0.693
- RQ CDK4 (HCT116 cells): 0.898
- RQ CDKN1A (HCT116 cells): 0.996
- RQ CDKN1B (HCT116 cells): 0.783
- RQ CDKN2A (HCT116 cells): 1.2 and 1.153
- RQ CRK (HCT116 cells): 0.758
- RQ CTNNB1 (HCT116 cells): 0.877
- RQ CYCS (HCT116 cells): 1.0 and 1.043
- RQ E2F1 (HCT116 cells): 0.736
- RQ EGFR (HCT116 cells): 11,276.3 and 11,276.298
- RQ ELK1 (HCT116 cells): 0.628
- RQ ERBB2 (HCT116 cells): 1.006
- RQ FADD (HCT116 cells): 74.1 and 74.142
- RQ FAS (HCT116 cells): 1.037
- RQ FGF2 (HCT116 cells): 1.003
- RQ FYN (HCT116 cells): 1.169
- RQ FZD1 (HCT116 cells): 0.9 and 0.860
- RQ GRB2 (HCT116 cells): 0.693
- RQ GSK3B (HCT116 cells): 0.738
- RQ GUSB (HCT116 cells): 2.9
- RQ HRAS (HCT116 cells): 0.561
- RQ IGF1R (HCT116 cells): 0.7 and 0.677
- RQ ITGA2B (HCT116 cells): 0.1 and 0.135
- RQ ITGAV (HCT116 cells): 1,149.0 and 1,149.015
- RQ ITGB1 (HCT116 cells): 0.579
- RQ ITGB3 (HCT116 cells): 1.243
- RQ JUN (HCT116 cells): 2.3 and 2.306
- RQ KDR (HCT116 cells): 1.4 and 1.408
- RQ KRAS (HCT116 cells): 0.979
- RQ MAP2K1 (HCT116 cells): 2,107.2 and 2,107.239
- RQ MAP3K5 (HCT116 cells): 4.3 and 4.314
- RQ MAPK1 (HCT116 cells): 1.062
- RQ MAPK3 (HCT116 cells): 1.9 and 1.853
- RQ MAPK8 (HCT116 cells): 0.623
- RQ MAPK14 (HCT116 cells): 1.145
- RQ MAX (HCT116 cells): 0.9 and 0.912
- RQ MDM2 (HCT116 cells): 1.272
- RQ MYC (HCT116 cells): 0.796
- RQ NFKB1 (HCT116 cells): 0.699
- RQ NFKB2 (HCT116 cells): 1.536
- RQ NFKBIA (HCT116 cells): 0.9 and 0.894
- RQ NRAS (HCT116 cells): 0.923
- RQ PIK3CA (HCT116 cells): 0.565
- RQ PIK3R1 (HCT116 cells): 1.3 and 1.299
- RQ PTEN (HCT116 cells): 0.8 and 0.776
- RQ PTK2 (HCT116 cells): 2.4 and 2.357
- RQ PTK2B (HCT116 cells): 1.0 and 1.024
- RQ RAC1 (HCT116 cells): 2.7 and 2.676
- RQ RAF1 (HCT116 cells): 0.9 and 0.909
- RQ RB1 (HCT116 cells): 0.821
- RQ RELA (HCT116 cells): 0.845
- RQ RHOA (HCT116 cells): 1.017
- RQ SMAD4 (HCT116 cells): 2.1 and 2.050
- RQ SOS1 (HCT116 cells): 0.2 and 0.188
- RQ SPP1 (HCT116 cells): 10.1 and 10.094
- RQ SRC (HCT116 cells): 0.801
- RQ TCF3 (HCT116 cells): 0.608
- RQ TGFB1 (HCT116 cells): 0.868
- RQ TGFBR1 (HCT116 cells): 0.781
- RQ TGFBR2 (HCT116 cells): 1.1 and 1.085
- RQ TP53 (HCT116 cells): 1.5 and 1.466
- RQ VEGFA (HCT116 cells): 1.321
